Patent US20230352149A1, “Single-cell morphology analysis for disease profiling and drug discovery” (Universität Heidelberg, priority 2020, published 2023)

System: cardiomyocytes
Test: live cell imaging of changes in cell areas after stimulation (FIG. 17A)
Format: cell-based
Details: for changes in cell areas vs Ctrl: after 9 h, Ctrl vs PE/Ins; for early dynamics of cell area: early dynamics (<2.5 h), compared with ctrl (no increase)
Description: Image acquisition can be performed with a microscope. Preferably, this is performed at the end of the experiment. In other embodiments, the image acquisition is performed during the course of the experiment to analyze the cell response over time (video, live cell imaging).
In order to perform time series analysis, imaging of cells can happen multiple times with live cell fluorescent dyes. This allows visualizing the dynamics of cell morphological changes over time. Experiments have shown that certain dynamics leads to a characteristic set of meta-features associated with certain diagnoses, prognoses, and/or individualized therapy.

Compound	changes in cell areas vs Ctrl	early dynamics of cell area
CNC[C@H](O)c1cccc(O)c1 [PE, phenylephrine]	differences following stimulation can be observed	steep increase
insulin	differences following stimulation can be observed	less steep increase
